Test results: ChEMBL document CHEMBL1201862, “PubChem BioAssay data set” (2004)
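Assay format: 96-well plates, 48-hour exposure. GI50 = concentration required for 50% inhibition of growth.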 The source made the active and inactive calls. Rule as the data show it: active = GI50 up to about 1.1 µM and inactive = higher.

Assays:
Assay in all cases: growth of human tumour cells (NCI), 48 h
NCI-H460 = test system: NCI-H460
SN12C = test system: SN12C
SK-OV-3 = test system: SK-OV-3
M14 = test system: M14
NCI-H522 = test system: NCI-H522
OVCAR-5 = test system: OVCAR-5
UACC-257 = test system: UACC-257
DMS-114 = test system: DMS-114
HCT-15 = test system: HCT-15
HOP-92 = test system: HOP-92
786-0 = test system: 786-0
SNB-75 = test system: SNB-75
XF498 = test system: XF498
SF-295 = test system: SF-295
NCI-H226 = test system: NCI-H226
Malme-3M = test system: Malme-3M
KM-20L2 = test system: KM-20L2
SF-539 = test system: SF-539
K562 = test system: K562
CAKI-1 = test system: CAKI-1
RXF 393 = test system: RXF 393
A549 = test system: A549
UACC-62 = test system: UACC-62
DLD-1 = test system: DLD-1
NCI-H23 = test system: NCI-H23
M19-MEL = test system: M19-MEL
RXF 631 = test system: RXF 631
HL-60 = test system: HL-60
HCC 2998 = test system: HCC 2998
DMS-273 = test system: DMS-273
OVCAR-8 = test system: OVCAR-8
IGROV-1 = test system: IGROV-1
MOLT-4 = test system: MOLT-4
ACHN = test system: ACHN
KM12 = test system: KM12
RPMI-8226 = test system: RPMI-8226
HOP-18 = test system: HOP-18
UO-31 = test system: UO-31
OVCAR-4 = test system: OVCAR-4
A498 = test system: A498
SW-620 = test system: SW-620
EKVX = test system: EKVX
LOX IMVI = test system: LOX IMVI
HCT-116 = test system: HCT-116
SK-MEL-28 = test system: SK-MEL-28
OVCAR-3 = test system: OVCAR-3
LXFL 529 = test system: LXFL 529
SF-268 = test system: SF-268
SK-MEL-5 = test system: SK-MEL-5
HOP-62 = test system: HOP-62
TK-10 = test system: TK-10
CCRF-CEM = test system: CCRF-CEM
SNB-78 = test system: SNB-78
COLO 205 = test system: COLO 205
SNB-19 = test system: SNB-19
U-251 = test system: U-251
SK-MEL-2 = test system: SK-MEL-2

Which GI50 (NCI-H460) does the source give for `Cc1nc(Nc2ccc(Cl)cc2)sc1C(=O)NNC(=S)NN` here?
The GI50 was 19.7 µM (inactive).

What about the GI50 (SN12C) of the same molecule?
Its GI50 is 18.1 µM (inactive).

And the GI50 (SK-OV-3)?
Its GI50 is 27.4 µM (inactive).

And the GI50 (M14)?
Its GI50 is 19.7 µM (inactive).

What about the GI50 (NCI-H522) of the same molecule?
The GI50 was 16.6 µM (inactive).

What about the GI50 (OVCAR-5) of the same molecule?
The GI50 was 16.8 µM (inactive).

What about the GI50 (UACC-257) of the same molecule?
Its GI50 is 13.2 µM (inactive).

What about the GI50 (DMS-114) of the same molecule?
The GI50 was 17.5 µM (inactive).

And the GI50 (HCT-15)?
The GI50 was 20.4 µM.

What about the GI50 (HOP-92) of the same molecule?
The GI50 was 26.1 µM (inactive).

And the GI50 (786-0)?
The GI50 was 16.6 µM (inactive).

And the GI50 (SNB-75)?
Its GI50 is 32.7 µM (inactive).

And the GI50 (XF498)?
The GI50 was 21.2 µM (inactive).

What about the GI50 (SF-295) of the same molecule?
The GI50 was 17.5 µM (inactive).

What about the GI50 (NCI-H226) of the same molecule?
Its GI50 is 19.1 µM (inactive).

What about the GI50 (Malme-3M) of the same molecule?
Its GI50 is 19.7 µM (inactive).

And the GI50 (KM-20L2)?
Its GI50 is 17.5 µM (inactive).

What about the GI50 (SF-539) of the same molecule?
The GI50 was 17.5 µM (inactive).

What about the GI50 (K562) of the same molecule?
Its GI50 is 27.3 µM (inactive).

What about the GI50 (CAKI-1) of the same molecule?
Its GI50 is 24.7 µM (inactive).

What about the GI50 (RXF 393) of the same molecule?
Its GI50 is 12.7 µM (inactive).

And the GI50 (A549)?
Its GI50 is 19 µM (inactive).

What about the GI50 (UACC-62) of the same molecule?
Its GI50 is 17.2 µM (inactive).

What about the GI50 (DLD-1) of the same molecule?
The GI50 was 16.6 µM (inactive).

What about the GI50 (NCI-H23) of the same molecule?
Its GI50 is 17.6 µM (inactive).

What about the GI50 (M19-MEL) of the same molecule?
Its GI50 is 22.3 µM (inactive).

What about the GI50 (RXF 631) of the same molecule?
The GI50 was 19.5 µM (inactive).

What about the GI50 (HL-60) of the same molecule?
The GI50 was 21.4 µM (inactive).

And the GI50 (HCC 2998)?
The GI50 was 15.5 µM (inactive).

And the GI50 (DMS-273)?
The GI50 was 18.6 µM (inactive).

And the GI50 (OVCAR-8)?
The GI50 was 21.3 µM (inactive).

And the GI50 (IGROV-1)?
Its GI50 is 25.9 µM (inactive).

And the GI50 (MOLT-4)?
The GI50 was 21.5 µM (inactive).

And the GI50 (ACHN)?
The GI50 was 19.5 µM (inactive).

And the GI50 (KM12)?
Its GI50 is 20.1 µM (inactive).

What about the GI50 (RPMI-8226) of the same molecule?
Its GI50 is 29 µM (inactive).

What about the GI50 (HOP-18) of the same molecule?
Its GI50 is 18.3 µM (inactive).

What about the GI50 (UO-31) of the same molecule?
Its GI50 is 15.8 µM (inactive).

And the GI50 (OVCAR-4)?
Its GI50 is 17.7 µM (inactive).

What about the GI50 (A498) of the same molecule?
The GI50 was 15.3 µM (inactive).

What about the GI50 (SW-620) of the same molecule?
Its GI50 is 19.5 µM (inactive).

And the GI50 (EKVX)?
The GI50 was 16.9 µM (inactive).

What about the GI50 (LOX IMVI) of the same molecule?
The GI50 was 14.5 µM (inactive).

And the GI50 (HCT-116)?
The GI50 was 17 µM (inactive).

What about the GI50 (SK-MEL-28) of the same molecule?
The GI50 was 19.3 µM (inactive).

What about the GI50 (OVCAR-3) of the same molecule?
Its GI50 is 19.3 µM (inactive).

And the GI50 (LXFL 529)?
Its GI50 is 20 µM (inactive).

What about the GI50 (SF-268) of the same molecule?
The GI50 was 21.1 µM (inactive).

What about the GI50 (SK-MEL-5) of the same molecule?
The GI50 was 18.3 µM (inactive).

And the GI50 (HOP-62)?
The GI50 was 18.8 µM (inactive).

What about the GI50 (TK-10) of the same molecule?
The GI50 was 20.9 µM (inactive).

And the GI50 (CCRF-CEM)?
The GI50 was 29.1 µM (inactive).

And the GI50 (SNB-78)?
Its GI50 is 19.5 µM (inactive).

What about the GI50 (COLO 205) of the same molecule?
Its GI50 is 21.6 µM (inactive).

What about the GI50 (SNB-19) of the same molecule?
The GI50 was 18.9 µM (inactive).

What about the GI50 (U-251) of the same molecule?
The GI50 was 17.5 µM (inactive).

What about the GI50 (SK-MEL-2) of the same molecule?
Its GI50 is 18.5 µM (inactive).
